The values below come from paper PMC9598656, “In Vitro Activity of Robenidine Analogues NCL259 and NCL265 against Gram-Negative Pathogens” (Antibiotics, 2022).

What is called MIC is the lowest concentration found to suppress growth.

In one experiment the test system is E. coli ATCC 10763. In words: MIC, broth micro-dilution. Format: cell-based, Escherichia coli. To be noted: Escherichia coli, ATCC10763, read-out: MIC, Single Drug. How it is done: (§1) A variety of Gram-negative reference strains (E. coli ATCC 25922, E. coli ATCC 10763, P. aeruginosa PAO1, P. aeruginosa ATCC 27853, A. baumannii ATCC 12457, A. baumannii ATCC 19606, K. pneumoniae ATCC 4352 and K. pneumoniae ATCC 33495) were used for initial screening and combination testing with PMB. The organisms were speciated using biochemical testing and MALDI-TOF mass spectrometry (Bruker, Preston, VIC, Australia). Activity testing of NCL259 and NCL265 was also carried out on 51 extraintestinal clinical E. coli isolates from companion animals, and 83 porcine and bovine enterotoxigenic E. coli (ETEC) isolates from the Australian Centre for Antimicrobial Resistance Ecology collection. E. coli wild-type (BW 25113) and its mutant BW 25113∆AcrB, in which the inner membrane component AcrB of the tripartite multidrug efflux system AcrA/AcrB/TolC has been deleted, were obtained from the bacterial collection held at Health and Biomedical Innovation, Clinical and Health Sciences, The University of South Australia. All isolates were cultured on sheep blood agar (SBA) plates at 37 °C for 18 h before being subcultured into Luria Bertaini (LB) (Oxoid, Scoresby, VIC, Australia) broth and grown to A600nm = 0.5 (equivalent to approx. 1.5 × 10^8 colony-forming units (CFU)/mL).
(§2) MICs for NCL259 and NCL265 (serial two-fold dilutions commencing at 256 µg/mL) were determined (in duplicate) in round bottom 96–well microtitre trays (Sarstedt 82.1582.001), using the broth micro-dilution method recommended by the Clinical and Laboratory Standards Institute (CLSI). We have shown previously that robenidine can chelate calcium ions from cation-adjusted Mueller-Hinton broth, which causes the loss of activity of robenidine. Therefore, LB broth was used in this study. Additionally, considering the low solubility of robenidine and its analogues in aqueous solutions, two-fold serial dilutions of stock solutions of these compounds were prepared in 100% DMSO [21]. The MIC for ampicillin against each isolate was determined for each test to serve as an internal quality control. The MICs of isolates were determined by visual reading and using an EnSpire Multimode Plate Reader 2300 at A600nm.

Another experiment deals with E. coli ATCC 25922. The experiment can be described thus: MIC, broth micro-dilution. Format: cell-based, Escherichia coli. The settings on record: Escherichia coli, ATCC25922, read-out: MIC, Single Drug. How it is done:
as §1, §2
For orientation: In broth dilution the organism is exposed to a series of concentrations in liquid medium.

For the next experiment, the system named is A. baumannii ATCC 12457. In words: MIC, broth micro-dilution. The settings on record: Acinetobacter baumannii, ATCC12457, read-out: MIC, Single Drug. The format is cell-based, Acinetobacter baumannii. The method, then:
as §1, §2

The test system of another experiment is A. baumannii ATCC 19606. The experiment can be described thus: MIC, broth micro-dilution. The settings on record: Acinetobacter baumannii, ATCC19606, read-out: MIC, Single Drug. Format: cell-based, Acinetobacter baumannii. How it is done: as §1, §2
Another experiment relates to P. aeruginosa ATCC 27853. The experiment can be described thus: Checkerboard assay with PMB. The format is cell-based, Pseudomonas aeruginosa. To be noted: for MIC, Combination: NCL259 or NCL265 with PMB; for Combination Effect / FICI: with PMB. How it is done: (§3) MICs of NCL259 or NCL265 in the presence of the efflux pump inhibitor, PAβN were determined using a checkerboard assay. […] Briefly, a two-fold serial dilution of each antimicrobial solution was prepared in its appropriate solvent (e.g., DMSO for robenidine analogues and Milli-Q water for PAβN), and 1 μL of each dilution was added from wells 12 to 3 (12.8–0.25 μg/mL for robenidine analogues, and 32–2 μg/mL for PAβN). Thereafter, 89 μL of LB broth was added to each well followed by the addition of 10 μL of bacterial suspension (1–5 × 10^6 CFU/mL) to each well. In this manner, the final concentration of DMSO in each well was 1%. The plate was subsequently incubated at 37 °C for 24 h. The resazurin assay was used for assessment of drug susceptibility of NCL259 and NCL265 (Supplementary Table S1–S6). The same method was also used to test the MICs of NCL259 or NCL265 in the presence of PMB against a range of Gram-negative reference strains (E. coli ATCC 25922, E. coli ATCC 10763, P. aeruginosa PAO1, P. aeruginosa ATCC 27853, A. baumannii ATCC 12457, A. baumannii ATCC 19606, K. pneumoniae ATCC 4352 and K. pneumoniae ATCC 33495). Stock solutions were prepared prior to use (25.6–0.25 mg/mL for robenidine analogues; 12.8–0.25 mg/mL for PMB). The interaction of two antibiotics was calculated as the fractional inhibitory concentration index (FICI) using the following formula:(1) FICI=MICA in combination/MICA alone+MICB in combination/MICB alone where A is NCL259 or NCL265 and B is PAβN or PMB. According to FICI calculations, the interaction between two compounds were interpreted as follows: synergistic (FICI ≤ 0.5); additive or partially synergistic (0.5 < FICI ≤ 1); indifferent (1 < FICI ≤ 4); and antagonistic (FICI > 4), as described previously. The dose reduction index (DRI) was used to describe the difference between the effective doses of NCL259 or NCL265 in combination with PMB or PAβN in comparison to their individual doses, using the following formula:(2) DRI=MICA alone/MICA in combination
(§4) Evaluation of DRI is important clinically because it can allow the dose of a potentially toxic drug to be lowered in combination with another compound without reducing the drug’s efficacy. A DRI higher than 1 is viewed as beneficial.

For the next experiment, the system named is K. oxytoca 13GNB–582. The experiment can be described thus: MIC, broth micro-dilution. To be noted: Klebsiella oxytoca, read-out: MIC, Single Drug. The format is cell-based. The method, then: as §2, §3
A further experiment has as its system K. pneumoniae 13GNB–429. The experiment can be described thus: MIC, broth micro-dilution. The format is cell-based. To be noted: Klebsiella pneumoniae, read-out: MIC, Single Drug. The method, then:
as §2, §3

In experiment [1] the test system is K. pneumoniae 13GNB–550. In words: MIC, broth micro-dilution. Format: cell-based. To be noted: Klebsiella pneumoniae, read-out: MIC, Single Drug. The method, then:
as §2, §3

Experiment [2] deals with K. pneumoniae 13GNB–550. In words: Checkerboard assay with PAβN. The format is cell-based, Klebsiella pneumoniae. To be noted: for concentration at the marked interaction: resazurin. The method, then: as §3, §4
Experiment [3] deals with Wild-type (E. coli BW 25113). In words: MIC, efflux-pump wild-type. The format is cell-based. The settings on record: Escherichia coli, read-out: MIC Values. How it is done: as §1
as §2, with “Additionally, considering the low solubility of robenidine and its analogues in aqueous solutions, two-fold serial dilutions of stock solutions of these compounds were prepared in 100% DMSO [21].” left out

The test system of experiment [4] is Gram-negative reference strains. In words: Checkerboard with PMB over the reference strains. The settings on record: sub-inhibitory PMB. The format is cell-based. How it is done: as §3, with “Stock solutions were prepared prior to use (25.6–0.25 mg/mL for robenidine analogues; 12.8–0.25 mg/mL for PMB).” left out, “According to FICI calculations, the interaction between two compounds were interpreted as follows: synergistic (FICI ≤ 0.5); additive or partially synergistic (0.5 < FICI ≤ 1); indifferent (1 < FICI ≤ 4); and antagonistic (FICI > 4), as described previously. The dose reduction index (DRI) was used to describe the difference between the effective doses of NCL259 or NCL265 in combination with PMB or PAβN in comparison to their individual doses, using the following formula:(2) DRI=MICA alone/MICA in combination” left out

The next experiment has as its system K. pneumoniae ATCC 4352. Set-up: method as in PMID 30318716. The settings on record: after 30 min treatment; cited from earlier work.
The mark [5] stands for this setting: K. pneumoniae 13GNB–550, PAβN + NCL265.
Where [6] appears, read: Table S5, NCL265 + PAβN, replicate 1.
The mark [7] stands for this setting: Table S5, NCL265 + PAβN, replicate 2.
Where [8] appears, read: K. pneumoniae 13GNB–550, PAβN + NCL259.
[9] abbreviates: Table S2, NCL259 + PAβN, replicate 2.

In the case of `[H]/N=C(\N)NN=C(CCCCCC)c1ccc(Cl)cc1` [NCL265, (E)-2-(1-(4-chlorophenyl)heptylidene)hydrazine-1-carboximidamide], the MIC with E. coli ATCC 10763 was 64 µg/mL; with E. coli ATCC 25922 it was 4 µg/mL; in the experiment on A. baumannii ATCC 12457, 2 µg/mL; in the experiment with A. baumannii ATCC 19606, 2 µg/mL; with K. oxytoca 13GNB–582, greater than 256 µg/mL; with K. pneumoniae 13GNB–429, greater than 256 µg/mL. In addition, the values for the MIC (in the experiment on K. pneumoniae 13GNB–550 [1]; in experiment [3]) were greater than 256 µg/mL and 16 µg/mL, respectively. The “MIC, Combination” value worked out at 0.5 µg/mL in the experiment with P. aeruginosa ATCC 27853 and 4 µg/mL with K. pneumoniae 13GNB–550 [2] (setting [5]). Besides, in the experiment with P. aeruginosa ATCC 27853 (PMB + NCL265), the “Dose Reduction Index (DRI) PMB:NCL265” value is recorded as 64. The “Combination Effect” value with P. aeruginosa ATCC 27853 is on record as “Additivity (additive or partially synergistic, 0.5 < FICI ≤ 1)”; with K. pneumoniae 13GNB–550 [2] (setting [5]), “Additivity (additive or partially synergistic, 0.5 < FICI ≤ 1)”. The FICI in the experiment on P. aeruginosa ATCC 27853 and with K. pneumoniae 13GNB–550 [2] (setting [5]) was 0.516 throughout. In the experiment with K. pneumoniae 13GNB–550 [2] (K. pneumoniae 13GNB–550), the “DRI PAβN:NCL265” value was 64. The interaction result with K. pneumoniae 13GNB–550 [2] (setting [6]) and in the experiment on K. pneumoniae 13GNB–550 [2] (setting [7]) was “synergistic (synergistic (FICI ≤ 0.5))” throughout. Further, the “concentration at the marked interaction” value in the experiment on K. pneumoniae 13GNB–550 [2] (setting [6]) and in the experiment on K. pneumoniae 13GNB–550 [2] (setting [7]) was 8 µg/mL throughout. In addition, the “reduction of MIC in combination with PMB” value in experiment [4] is recorded as 4- to 256 fold. Besides, in the experiment on K. pneumoniae ATCC 4352, the “reduction in CFU (bactericidal)” value is listed as greater than 5 log 10.

For the compound `[H]/N=C(\N)NN=C(CC1CCCCC1)c1ccc(Cl)cc1` [NCL259, (E)-2-(1-(4-chlorophenyl)-2-cyclohexylethylidene)hydrazine-1-carboximidamide], the MIC in the experiment with E. coli ATCC 10763 was 64 µg/mL; in the experiment on E. coli ATCC 25922 it was 16 µg/mL; in the experiment with A. baumannii ATCC 12457, 8 µg/mL; in the experiment on A. baumannii ATCC 19606, 8 µg/mL; in the experiment with K. oxytoca 13GNB–582 it was greater than 256 µg/mL; in the experiment on K. pneumoniae 13GNB–429, greater than 256 µg/mL. The MIC with K. pneumoniae 13GNB–550 [1] was greater than 256 µg/mL; in [3], 64 µg/mL. The “MIC, Combination” value is 2 µg/mL in the experiment on P. aeruginosa ATCC 27853 and 8 µg/mL with K. pneumoniae 13GNB–550 [2] (setting [8]). Moreover, the “Dose Reduction Index (DRI) PMB:NCL259” value in the experiment with P. aeruginosa ATCC 27853 (PMB + NCL259) is listed as 32. Further, the “Combination Effect” value in the experiment on P. aeruginosa ATCC 27853 is “Additivity (additive or partially synergistic, 0.5 < FICI ≤ 1)”; in the experiment with K. pneumoniae 13GNB–550 [2] (setting [8]), “Additivity (additive or partially synergistic, 0.5 < FICI ≤ 1)”. Besides, the FICI in the experiment with P. aeruginosa ATCC 27853 and in the experiment with K. pneumoniae 13GNB–550 [2] (setting [8]) was 0.531 in each case. Also, the “DRI PAβN:NCL259” value in the experiment on K. pneumoniae 13GNB–550 [2] (K. pneumoniae 13GNB–550) amounted to 32. Further, the interaction result with K. pneumoniae 13GNB–550 [2] (setting [9]) is “synergistic (synergistic (FICI ≤ 0.5))”. The “concentration at the marked interaction” value amounted to 16 µg/mL in the experiment on K. pneumoniae 13GNB–550 [2] (Table S2, NCL259 + PAβN, replicate 1) and 16 µg/mL in the experiment on K. pneumoniae 13GNB–550 [2] (setting [9]). Further, the “reduction of MIC in combination with PMB” value in experiment [4] is recorded as 8- to 256 fold. Besides, the “reduction in CFU (bactericidal)” value in the experiment with K. pneumoniae ATCC 4352 is given as greater than 5 log 10.
